In publication PMC7070320, “Unsymmetrically Substituted Dibenzo[b,f][1,5]-diazocine-6,12(5H,11H)dione—A Convenient Scaffold for Bioactive Molecule Design” (Molecules, 2020):
Read-outs that look alike come from different tables or passages of the source.

What was measured:
[1] = system: two normal (HEK293, EUFA30) and two cancerous (HeLa, U87) cell lines; assay: Cytotoxicity assay (Alamar Blue), statements over all four cell lines; format: cell-based, human; conditions: concentrations tested: 1–200 µM
Procedure: (§1) Following cell lines: HeLa, U87, HEK293, EUFA30 were cultured in DMEM medium (Life Technology, Carlsbad, CA, USA) with 10% fetal bovine serum (Thermo Fisher Scientific, Waltham, MA, USA) and 0.1% antibiotics (penicillin, streptomycin, Life Technology, Carlsbad, CA, USA). Cells were grown in atmosphere of 5 and 95% CO2 and air, respectively, at 37 °C.
(§2) Exponentially growing cells at the density of 2 × 10^3 cells/well were seeded onto a 96-well plate, cultured for 18 h, and treated with newly synthesized compounds at concentrations 1–200 µM, or with DMSO as a control, for 24 or 48 h. Alamar Blue (Thermo Fisher Scientific, Waltham, MA, USA) was added accordingly to manufacturer protocol. After 4 h, light emission at 590 nm was measured with excitation at 560 nm using a scanning multiwell spectrophotometer (DTX 880, Beckman Coulter, Brea, CA, USA). The experiments were repeated at least three times with three replicates for each inhibitor concentration. After background subtraction, inhibition rates, IC50, were calculated as the component concentration inhibiting cell growth by 50%. All the calculations were performed using Origin 9.0 software.

HeLa [2] = assay: Cytotoxicity assay (Alamar Blue), HeLa cells; format: cell-based; conditions: Homo sapiens, read-out: IC50 based on the survival of cells
Procedure: as §1, §2

HEK293 [3] = assay: Flow cytometry apoptosis detection (Annexin V-FITC / propidium iodide), HEK293; format: cell-based, human; conditions: HEK293, 200 µM; for cells in necrosis: control cells 20%; for cells in early apoptosis: control cells 1.3%
Procedure: as §1
(§3) The apoptosis detection kit (Annexin V-FITC BD Biosciences, Franklin Lakes, NJ, USA) was used to detect apoptosis by flow cytometry. Cells were seeded in 6-well plates at concentration of 5 × 10^5 cells/well, cultured for 18 h, and tested compound was applied for indicated time. Afterwards, cells were washed with PBS, resuspended in binding buffer at concentration of 2 × 10^6 cells/mL. The anti-Annexin V FITC-conjugated antibody and propidium iodide were added to 100 µl aliquots. Then, mixtures were incubated for 15 min at room temperature, supplemented with binding buffer to 500 µl and processed by BD FACSCalibur (BD Biosciences, Franklin Lakes, NJ, USA). Data were analyzed in Flowing Software version 2.5.1 (Flowing Software, http://www.uskonaskel.fi/flowingsoftware).

EUFA30 = assay: Cytotoxicity assay (Alamar Blue), EUFA30 cells; format: cell-based; conditions: Homo sapiens, read-out: IC50 based on the survival of cells
Procedure: as §1, §2

U87 [4] = assay: Flow cytometry apoptosis detection (Annexin V-FITC / propidium iodide), U87; format: cell-based, human; conditions: U87, 200 µM; for cells in late apoptosis: control 1.6%; for cells in necrotic phase: 48 h, control 17%; for cells in necrosis: control 8.6%
Procedure: as §1, §3

HEK293 [5] = assay: Cytotoxicity assay (Alamar Blue), HEK293 cells; format: cell-based, human; conditions: read-out: IC50 based on the survival of cells
Procedure: as §1, §2

HeLa [6] = assay: Flow cytometry apoptosis detection (Annexin V-FITC / propidium iodide), HeLa; format: cell-based, human; conditions: 200 µM
Procedure: as §1, §3

U87 [7] = assay: Cytotoxicity assay (Alamar Blue), U87 cells; format: cell-based, human; conditions: read-out: IC50 based on the survival of cells
Procedure: as §1, §2

[8] = Homo sapiens, HEK293, 24 h, HEK293, 24 h of treatment
[9] = Homo sapiens, HEK293, 48 h, HEK293, 48 h of treatment
[10] = Homo sapiens, U-87 MG, 24 h, U87, 24 h of treatment
[11] = Homo sapiens, U-87 MG, 48 h, U87, 48 h of treatment

## CN1C(=O)c2cc([N+](=O)[O-])ccc2NC(=O)c2ccccc21 [Compound 10f, 11-Methyl-2-nitrodibenzo[b,f][1,5]diazocine-6,12(5H,11H)-dione]
[1]
  cytotoxic effect (in words): showed a cytotoxic effect while maintaining the selectivity of action
HeLa [2]; 24 h of treatment
  IC50: 206 ± 12.8 µM
HEK293 [3]; 24 h, control cells 0.4%
  cells in late apoptosis: 0.5%
HEK293 [3]; 24 h
  cells in necrosis: 39%
HEK293 [3]; 48 h, control cells 0.5%
  cells in late apoptosis: 3%
HEK293 [3]; 48 h
  cells in early apoptosis: 6.6%
other
  melting point: 225 to 226 °C

## CN1C(=O)c2cc(Br)ccc2N(Cc2cccc3ccccc23)C(=O)c2ccccc21 [Compound 10k, 2-Bromo-11-methyl-5-(naphthalen-1-ylmethyl)dibenzo[b,f][1,5]diazocine-6,12(5H,11H)-dione]
HeLa [2]; 24 h of treatment
  IC50: 75.3 ± 1.6 µM
HeLa [2]; 48 h of treatment
  IC50: 124 ± 5.4 µM
EUFA30; Eufa30, 24 h of treatment
  IC50: 87.6 ± 8.1 µM
EUFA30; Eufa30, 48 h of treatment
  IC50: 74.4 ± 6.7 µM
U87 [4]; 24 and 48 h
  changes in the apoptosis/necrosis phases in relation to control: did not observe any changes in the apoptosis/necrosis phases in relation to control
HEK293 [3]; 24 and 48 h
  changes in the apoptosis/necrosis phases in relation to control: did not observe any changes in the apoptosis/necrosis phases in relation to control
other
  melting point: 255 to 256 °C
HEK293 [5]; [8]
  IC50: 119 ± 7.1 µM
HEK293 [5]; [9]
  IC50: 138 ± 12 µM
HeLa [6]; 24 and 48 h
  changes in the apoptosis/necrosis phases in relation to control: did not observe any changes in the apoptosis/necrosis phases in relation to control
U87 [7]; [10]
  IC50: 75.4 ± 8.7 µM
U87 [7]; [11]
  IC50: 197 ± 9.4 µM

## COc1cc2c(cc1OC)C(=O)Nc1ccc(Br)cc1C(=O)N2 [Compound 10c, 8-Bromo-2,3-dimethoxydibenzo[b,f][1,5]diazocine-6,12(5H,11H)-dione]
[1]
  cytotoxic effect (in words): no cytotoxic effect in the concentration range tested
other
  melting point: 195 to 196 °C

## O=C1Nc2nccnc2C(=O)Nc2ccc(Cl)cc21 [Compound 10m, 8-Chloropyrazino[3,2-c][1,5]benzodiazocine-6,12(5H,11H)-dione]
other
  melting point: 346 to 347 °C

## O=C1Nc2ccccc2C(=O)N(Cc2ccccc2)c2ccccc21 [Compound 10i, 5-Benzyldibenzo[b,f][1,5]diazocine-6,12(5H,11H)-dione]
other
  melting point: 212 to 213 °C

## O=C1Nc2ccc(Cl)cc2C(=O)Nc2ccccc21 [Compound 10a, 2-Chlorodibenzo[b,f][1,5]diazocine-6,12(5H,11H)-dione]
[1]
  cytotoxic effect (in words): no cytotoxic effect in the concentration range tested
other
  melting point: 275 to 276 °C

## CN1C(=O)c2cc3ccccc3cc2NC(=O)c2cc(Cl)ccc21 [Compound 10h, 2-Chloro-5-methylbenzo[b]naphtho[2,3-f][1,5]diazocine-6,14(5H,13H)-dione]
[1]
  cytotoxic effect (in words): showed a cytotoxic effect while maintaining the selectivity of action
HeLa [2]; 24 h of treatment
  IC50: 107 ± 10 µM
HeLa [2]; 48 h of treatment
  IC50: 108 ± 8.6 µM
EUFA30; Eufa30, 24 h of treatment
  IC50: 170 ± 21.1 µM
EUFA30; Eufa30, 48 h of treatment
  IC50: 200 ± 13.9 µM
U87 [4]; 24 h, control 1.2%
  cells in early apoptosis: 4.1%
U87 [4]; 24 h
  cells in late apoptosis: 6.9%
U87 [4]
  cells in necrotic phase: 36.2%
HEK293 [3]; 24 h, control cells 0.4%
  cells in late apoptosis: 3%
HEK293 [3]; 24 h
  cells in necrosis: 32%
HEK293 [3]; 48 h, control cells 0.5%
  cells in late apoptosis: 3.2%
HEK293 [3]; 48 h
  cells in early apoptosis: 3.8%
other
  melting point: 270 to 271 °C
HEK293 [5]; [8]
  IC50: > 200 µM
U87 [7]; [10]
  IC50: 149 ± 9 µM
U87 [7]; [11]
  IC50: 182 ± 5.6 µM

## CC(=O)N1C(=O)c2ccccc2N(C)C(=O)c2ccccc21 [Compound 10o, 5-acetyl-11-methyldibenzo[b,f][1,5]diazocine-6,12(5H,11H)-dione]
other
  melting point: 193 to 194 °C

## CN1C(=O)c2cc(Br)ccc2NC(=O)c2ccccc21 [Compound 10e, 2-Bromo-11-methyldibenzo[b,f][1,5]diazocine-6,12(5H,11H)-dione]
HeLa [2]; 24 h of treatment
  IC50: > 200 µM
other
  melting point: 247 to 248 °C

## CCOC(=O)CN1C(=O)c2ccccc2N(C)C(=O)c2ccccc21 [Compound 10n, ethyl 2-(11-methyl-6,12-dioxo-11,12-dihydrodibenzo[b,f][1,5]diazocin-5(6H)-yl)acetate]
other
  melting point: 125 to 126 °C

## COc1cc2c(cc1OC)C(=O)N(C)c1ccccc1C(=O)N2 [Compound 10g, 2,3-Dimethoxy-11-methyldibenzo[b,f][1,5]diazocine-6,12(5H,11H)-dione]
other
  melting point: 271 to 272 °C

## CN1C(=O)c2ccccc2NC(=O)c2ccccc21 [Compound 10d, 5-Methyldibenzo[b,f][1,5]diazocine-6,12(5H,11H)-dione]
other
  melting point: 258 to 259 °C

## O=C1Nc2ccc(Br)cc2C(=O)Nc2ccccc21 [Compound 10b, 2-Bromodibenzo[b,f][1,5]diazocine-6,12(5H,11H)-dione]
[1]
  cytotoxic effect (in words): showed a cytotoxic effect while maintaining the selectivity of action
HeLa [2]; 24 h of treatment
  IC50: 97.3 ± 13.7 µM
other
  melting point: 283 to 284 °C

## O=C1Nc2ccccc2C(=O)N(Cc2ccc(Br)cc2)c2ccccc21 [Compound 10j, 5-(4-Bromobenzyl)dibenzo[b,f][1,5]diazocine-6,12(5H,11H)-dione]
[1]
  cytotoxic effect (in words): showed a cytotoxic effect while maintaining the selectivity of action
HeLa [2]; 24 h of treatment
  IC50: 138 ± 14.1 µM
HeLa [2]; 48 h of treatment
  IC50: 203 ± 4 µM
U87 [4]; 24 h
  cells in late apoptosis: 5.2%
  cells in necrosis: 17.8%
U87 [4]
  cells in necrotic phase: 28.1%
HEK293 [3]; 24 h, control cells 0.4%
  cells in late apoptosis: 10%
HEK293 [3]; 24 h
  cells in necrosis: 22%
HEK293 [3]; 48 h, control cells 0.5%
  cells in late apoptosis: 4.4%
HEK293 [3]; 48 h
  cells in early apoptosis: 4%
other
  melting point: 222 to 223 °C
HEK293 [5]; [9]
  IC50: 192 ± 12.2 µM

## COc1cc2c(cc1OC)C(=S)Nc1ccc(Br)cc1C(=S)N2 [Compound 10p, 8-bromo-2,3-dimethoxydibenzo[b,f][1,5]diazocine-6,12(5H,11H)-dithione]
[1]
  cytotoxic effect (in words): showed a cytotoxic effect while maintaining the selectivity of action
HeLa [2]; 24 h of treatment
  IC50: 115 ± 4.5 µM
HeLa [2]; 48 h of treatment
  IC50: 204 ± 6.5 µM
EUFA30; Eufa30, 24 h of treatment
  IC50: > 200 µM
EUFA30; Eufa30, 48 h of treatment
  IC50: 158 ± 9.6 µM
U87 [4]; 24 h
  cells in necrosis: 14%
U87 [4]
  cells in necrotic phase: 46.6%
other
  melting point: 186 to 187 °C (dec.)
HEK293 [5]; HEK293, 24 h of treatment
  IC50: 202 ± 7.9 µM
HEK293 [5]; [8]
  IC50: > 200 µM
HEK293 [5]; [9]
  IC50: 145 ± 8.5 µM
HeLa [6]; 24 h, non-treated control 21.1%
  percentage of necrotic cells: 34.5%
HeLa [6]; 48 h, control cells 22.1%
  percentage of necrotic cells: 53.4%
U87 [7]; [10]
  IC50: 170 µM
U87 [7]; U87, 24 h of treatment
  IC50: 172 ± 10 µM
